Measured values from patent publication US20120225054A1, “USE OF LEGUME EXTRACTS FOR INDUCING AND ENHANCING AUTOPHAGY AND APOPTOSIS AND FOR PREVENTING AND/OR TREATING CANCERS” (HERBAL BON BIOTECH INC., priority 2011, published 2012).

Experiments:
[1] = tested on: human HCC Hep 3B cells; experiment: Flow cytometric analysis of apoptotic cells with autophagy inhibitor, Hep 3B; assay type: cell-based; settings: 10 mM 3-MA pretreatment 2 h, SC-1 265 μg/ml
Procedure: (§1) Cells (2×10^5) grown in 6-well plates were pretreated with or without 10 mM of autophagy inhibitor 3-methyladenine (3-MA; Sigma, St. Louis, Mo.) for 2 h prior to the addition of SC-1 (265 μg/ml). The cells were harvested, centrifuged at 800g for 10 min at 4° C., and resuspended in HBS containing 40 μg/ml of propidium iodide and […] RNase A for 30 min at 37° C. in the dark. Measurement of apoptotic cells was performed using a FACScan flow cytometer (Becton Dickison, Mountain View, Calif., USA).
To confirm the importance of autophagy in the proceeding of apoptosis, autophagy inhibitor 3-MA was added to the cell culture and the relative portion of apoptotic cells was analyzed by flow cytometry. […] In FIG. 5B, it inhibited the fermented soybean extracts-induced apoptosis of Hep 3B cells approximately 42% at 48 h and 60% at 72 h. Therefore, it would not be surprised that the induction of apoptosis was observed only in combination with autophagy in tumors obtained from the mice received the fermented soybean extracts for a relatively long period of time (FIGS. 4A and B).

[2] = tested on: murine hepatoma ML-1 cells; experiment: Flow cytometric analysis of apoptotic cells with autophagy inhibitor, ML-1; assay type: cell-based; settings: 10 mM 3-MA pretreatment 2 h, SC-1 265 μg/ml
Procedure: Murine ML-1 cells obtained from Dr. Huan-Yao Lei (Department of Microbiology and Immunology, Medical College, National Cheng Kung University, Tainan, Taiwan) were cultured in complete Dulbecco's modified Eagle medium (DMEM; GIBCO BRL, Grand Island, N.Y.) containing 10% fetal bovine serum (GIBCO BRL), 2 mM glutamine (Sigma, St. Louis, Mo.), 100 U/ml penicillin (Sigma), and 100 μg/ml streptomycin (Sigma) at 37° C. in a 5% CO2 humidified atmosphere.
as §1
To confirm the importance of autophagy in the proceeding of apoptosis, autophagy inhibitor 3-MA was added to the cell culture and the relative portion of apoptotic cells was analyzed by flow cytometry. […] In FIG. 5B, it inhibited the fermented soybean extracts-induced apoptosis of Hep 3B cells approximately 42% at 48 h and 60% at 72 h. […]

## Cn1cnc(N)c2ncnc1-2 [3-MA, 3-methyladenine]
[1]; 48 h
  inhibition of fermented soybean extracts-induced apoptosis: approximately 42%
[1]; 72 h
  inhibition of fermented soybean extracts-induced apoptosis: ~60%
[2]; 48 h
  inhibition of fermented soybean extracts-induced apoptosis: approximately 45%
[2]; 72 h
  inhibition of fermented soybean extracts-induced apoptosis: ~52%
